Measured values from ChEMBL document CHEMBL1201862, “PubChem BioAssay data set” (2004).
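The compound was tested at five concentrations on cells cultured in 96-well plates, with a 48-hour exposure period. GI50 marks 50% less growth.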 Active and inactive are the calls of the source. Cut-off read from the data, not from the text of the source: active = GI50 up to about 1.1 µM and inactive = higher.

How the values were obtained:
Experiment in all cases: NCI-60 cell line screen, 48 h
HL-60 = test system: HL-60
NCI-H23 = test system: NCI-H23
MDA-N = test system: MDA-N
SK-OV-3 = test system: SK-OV-3
MDA-MB-231 = test system: MDA-MB-231
NCI-H460 = test system: NCI-H460
SNB-19 = test system: SNB-19
HOP-62 = test system: HOP-62
K562 = test system: K562
IGROV-1 = test system: IGROV-1
OVCAR-5 = test system: OVCAR-5
CAKI-1 = test system: CAKI-1
A498 = test system: A498
M14 = test system: M14
T47D = test system: T47D
TK-10 = test system: TK-10
OVCAR-4 = test system: OVCAR-4
LOX IMVI = test system: LOX IMVI
DU-145 = test system: DU-145
MCF7 = test system: MCF7
OVCAR-8 = test system: OVCAR-8
SK-MEL-2 = test system: SK-MEL-2
PC-3 = test system: PC-3
NCI-H226 = test system: NCI-H226
COLO 205 = test system: COLO 205
NCI/ADR-RES = test system: NCI/ADR-RES
MDA-MB-435 = test system: MDA-MB-435
HCC 2998 = test system: HCC 2998
MOLT-4 = test system: MOLT-4
OVCAR-3 = test system: OVCAR-3
CCRF-CEM = test system: CCRF-CEM
SW-620 = test system: SW-620
HT-29 = test system: HT-29
SK-MEL-28 = test system: SK-MEL-28
HOP-92 = test system: HOP-92
U-251 = test system: U-251
UACC-62 = test system: UACC-62
SF-295 = test system: SF-295
A549 = test system: A549
HCT-15 = test system: HCT-15
SR = test system: SR
UO-31 = test system: UO-31
EKVX = test system: EKVX
RPMI-8226 = test system: RPMI-8226
UACC-257 = test system: UACC-257
RXF 393 = test system: RXF 393
ACHN = test system: ACHN
SK-MEL-5 = test system: SK-MEL-5
SN12C = test system: SN12C
KM12 = test system: KM12
786-0 = test system: 786-0
HCT-116 = test system: HCT-116
SNB-75 = test system: SNB-75
Malme-3M = test system: Malme-3M
NCI-H522 = test system: NCI-H522
SF-539 = test system: SF-539
Hs-578T = test system: Hs-578T

COc1ccc2c(c1)CC[C@@H]1[C@@H]2CC[C@]2(C)C(=O)/C(=C/c3ccc(O)c(OC)c3)C[C@@H]12
GI50 (HL-60): 47.8 µM (inactive)
GI50 (NCI-H23): 77.1 µM (inactive)
GI50 (MDA-N): 57.1 µM (inactive)
GI50 (SK-OV-3): > 100 µM (inactive)
GI50 (MDA-MB-231): 37.2 µM (inactive)
GI50 (NCI-H460): 39.4 µM (inactive)
GI50 (SNB-19): > 100 µM (inactive)
GI50 (HOP-62): 62.7 µM (inactive)
GI50 (K562): 50.5 µM (inactive)
GI50 (IGROV-1): 63.8 µM (inactive)
GI50 (OVCAR-5): 76 µM (inactive)
GI50 (CAKI-1): 67.8 µM (inactive)
GI50 (A498): > 100 µM (inactive)
GI50 (M14): 35.6 µM (inactive)
GI50 (T47D): 96.6 µM (inactive)
GI50 (TK-10): 43.1 µM (inactive)
GI50 (OVCAR-4): 55.8 µM (inactive)
GI50 (LOX IMVI): 36.9 µM (inactive)
GI50 (DU-145): 92.9 µM (inactive)
GI50 (MCF7): 60.4 µM (inactive)
GI50 (OVCAR-8): 91.8 µM (inactive)
GI50 (SK-MEL-2): 69.2 µM (inactive)
GI50 (PC-3): 39.1 µM (inactive)
GI50 (NCI-H226): 44.2 µM (inactive)
GI50 (COLO 205): > 100 µM (inactive)
GI50 (NCI/ADR-RES): 44.2 µM (inactive)
GI50 (MDA-MB-435): 32 µM (inactive)
GI50 (HCC 2998): 31.6 µM (inactive)
GI50 (MOLT-4): 28.2 µM (inactive)
GI50 (OVCAR-3): > 100 µM (inactive)
GI50 (CCRF-CEM): 66.2 µM (inactive)
GI50 (SW-620): 58.2 µM (inactive)
GI50 (HT-29): 51.8 µM (inactive)
GI50 (SK-MEL-28): 52.1 µM (inactive)
GI50 (HOP-92): > 100 µM (inactive)
GI50 (U-251): 51.3 µM (inactive)
GI50 (UACC-62): 68.5 µM (inactive)
GI50 (SF-295): 55.6 µM (inactive)
GI50 (A549): 51.6 µM (inactive)
GI50 (HCT-15): 28.3 µM
GI50 (SR): 32.2 µM (inactive)
GI50 (UO-31): 71 µM (inactive)
GI50 (EKVX): 45.8 µM (inactive)
GI50 (RPMI-8226): 34.7 µM (inactive)
GI50 (UACC-257): 57.8 µM (inactive)
GI50 (RXF 393): 41.5 µM (inactive)
GI50 (ACHN): > 100 µM (inactive)
GI50 (SK-MEL-5): 33.9 µM (inactive)

CO[C@@H]1/C=C\C=C(/C)C(=O)NC2=CC(=O)C(NCCN(C)C)=C(C[C@@H](C)C[C@@H](OC)[C@@H](O)[C@H](C)/C=C(\C)[C@H]1OC(N)=O)C2=O
GI50 (NCI-H23): < 0.01 µM (active)
GI50 (SK-OV-3): 0.0137 µM (active)
GI50 (SN12C): 0.0113 µM (active)
GI50 (SNB-19): 0.0292 µM (active)
GI50 (K562): 0.0139 µM (active)
GI50 (IGROV-1): 0.0139 µM (active)
GI50 (KM12): 0.0122 µM (active)
GI50 (A498): 13.2 µM (inactive)
GI50 (M14): 0.0104 µM (active)
GI50 (786-0): 0.0286 µM (active)
GI50 (OVCAR-4): 1.14 µM (inactive)
GI50 (LOX IMVI): 0.0108 µM (active)
GI50 (HCT-116): 0.0171 µM (active)
GI50 (MCF7): < 0.01 µM (active)
GI50 (OVCAR-8): 0.0172 µM (active)
GI50 (COLO 205): 0.0145 µM (active)
GI50 (HCC 2998): 0.015 µM (active)
GI50 (MOLT-4): 0.0303 µM (active)
GI50 (SNB-75): < 0.01 µM (active)
GI50 (CCRF-CEM): 0.0247 µM (active)
GI50 (Malme-3M): 0.013 µM (active)
GI50 (U-251): 0.011 µM (active)
GI50 (UACC-62): 0.0172 µM (active)
GI50 (A549): < 0.01 µM (active)
GI50 (HCT-15): 0.619 µM
GI50 (SR): < 0.01 µM (active)
GI50 (UO-31): 0.838 µM (active)
GI50 (RPMI-8226): 0.0713 µM (active)
GI50 (UACC-257): 0.0159 µM (active)

COc1cc(C(=O)N2CCN(C=O)C2=S)cc(OC)c1OC
GI50 (UO-31): 0.0675 µM (active)
GI50 (RPMI-8226): 7.31 µM (inactive)

CN(C)C1COC2Cc3ccccc3C1O2 (stereo not given)
GI50 (HL-60): > 100 µM (inactive)
GI50 (MDA-N): > 100 µM (inactive)
GI50 (MDA-MB-231): > 100 µM (inactive)
GI50 (NCI-H460): > 100 µM (inactive)
GI50 (SNB-19): > 100 µM (inactive)
GI50 (HOP-62): > 100 µM (inactive)
GI50 (NCI-H522): > 100 µM (inactive)
GI50 (IGROV-1): > 100 µM (inactive)
GI50 (KM12): > 100 µM (inactive)
GI50 (A498): > 100 µM (inactive)
GI50 (786-0): > 100 µM (inactive)
GI50 (T47D): > 100 µM (inactive)
GI50 (DU-145): > 100 µM (inactive)
GI50 (MCF7): > 100 µM (inactive)
GI50 (SK-MEL-2): > 100 µM (inactive)
GI50 (PC-3): > 100 µM (inactive)
GI50 (NCI-H226): > 100 µM (inactive)
GI50 (COLO 205): > 100 µM (inactive)
GI50 (NCI/ADR-RES): > 100 µM (inactive)
GI50 (MDA-MB-435): > 100 µM (inactive)
GI50 (HCC 2998): > 100 µM (inactive)
GI50 (MOLT-4): > 100 µM (inactive)
GI50 (OVCAR-3): > 100 µM (inactive)
GI50 (CCRF-CEM): > 100 µM (inactive)
GI50 (Malme-3M): > 100 µM (inactive)
GI50 (SW-620): > 100 µM (inactive)
GI50 (SK-MEL-28): > 100 µM (inactive)
GI50 (U-251): > 100 µM (inactive)
GI50 (UACC-62): > 100 µM (inactive)
GI50 (UO-31): > 100 µM (inactive)
GI50 (EKVX): > 100 µM (inactive)
GI50 (RPMI-8226): > 100 µM (inactive)
GI50 (UACC-257): > 100 µM (inactive)
GI50 (SF-539): > 100 µM (inactive)
GI50 (Hs-578T): > 100 µM (inactive)
GI50 (SK-MEL-5): > 100 µM (inactive)
